# Measurements reported in patent EP2216341A1, “Transferrin variants and conjugates” (Novozymes Biopharma UK Limited, priority 2009, dated 2010).
# How the values were obtained:
# [1] = system: K562 erythroleukemic cells; test: 55Fe uptake from labeled diferric transferrin in erythroleukemic K562 cells; format: cell-based, human; conditions: 25 minutes at 37°C
# Experimental: Human plasma-derived apo-transferrin (Calbiochem 616419, tissue culture grade, pyrogen-free) is supplied lyophilised from 10mM phosphate buffer, pH7.4. The transferrin mutein is expressed, purified and quantified as described above.
# For iron-55 uptake from labeled diferric transferrin, K562 erythroleukemic cells, cultured in RPMI cell culture medium under standard conditions (bicarbonate-buffered, 5% (v/v) CO2, antibiotics, 10% (v/v) fetal calf serum) are washed with serum-free medium containing HEPES-buffer and 1 mg/ml of bovine serum albumin and used at a concentration of 10 million cells/ml in this medium. The samples tested are prepared as equimolar concentrations of apo-transferrin mutein. Apo-transferrin mutein is loaded with iron according to a standard procedure (Bates and Schlabach, J Biol Chem, 248, 3228-3232, 1973) using ferric nitrilotriacetate as iron source. Typically 50µl of 1 M NaClO4 is added to 450µl of the transferrin mutein stock-solution (pH is alkaline to neutral). The ^55Fe -NTA-loading-buffer is prepared by mixing 8.5µl 50mM NTA (pH 8.25), 18.9µl 0.1M Tris, 98.8µl Millipore-purified water and 7.5µl ^55FeCl3 in 0.5 N HCl (NEN products). 500µl of transferrin mutein is carefully mixed (dropwise) with the ^55Fe -NTA-loading-buffer and then 310µl of 5mM Hepes. NaOH/0.1M NaClO4 is added. The mixture is incubated at 4°C for 60 min following which it is deslated on a PD-10 column (containing Sephadex G-25) and dialysed. The PD-10 column is equilibrated with 5ml of equilibration buffer (5mM Hepes/NaOH, 0.1M NaClO4, 0.1 g BSA (Amresco)) then washed three times with 5ml of wash buffer (5mM Hepes/NaOH, 0.1M NaClO4). […]
# Increasing concentrations of human plasma transferrin or the transferrin mutein sample (0, 25, 100, 200, 400, 800, 1600 nM), labeled with ^55Fe, are mixed with 25 µl of medium. […] The lysates are neutralized with 1 M HCl after overnight lysis, mixed with Readysolv Scintillation cocktail and counted in the Packard Liquid Scintillation Counter. […]
# [2] = biological target: T1, transferrin receptor 1 (TfR1) (Homo sapiens, UniProt P02786); test: Transferrin receptor 1 binding by Surface Plasmon Resonance (SPR, Biacore); conditions: fluorescein conjugated sample
# T1 construct: purchased AbD Serotec 9110-300
# T1 sequence (P02786 whole entry): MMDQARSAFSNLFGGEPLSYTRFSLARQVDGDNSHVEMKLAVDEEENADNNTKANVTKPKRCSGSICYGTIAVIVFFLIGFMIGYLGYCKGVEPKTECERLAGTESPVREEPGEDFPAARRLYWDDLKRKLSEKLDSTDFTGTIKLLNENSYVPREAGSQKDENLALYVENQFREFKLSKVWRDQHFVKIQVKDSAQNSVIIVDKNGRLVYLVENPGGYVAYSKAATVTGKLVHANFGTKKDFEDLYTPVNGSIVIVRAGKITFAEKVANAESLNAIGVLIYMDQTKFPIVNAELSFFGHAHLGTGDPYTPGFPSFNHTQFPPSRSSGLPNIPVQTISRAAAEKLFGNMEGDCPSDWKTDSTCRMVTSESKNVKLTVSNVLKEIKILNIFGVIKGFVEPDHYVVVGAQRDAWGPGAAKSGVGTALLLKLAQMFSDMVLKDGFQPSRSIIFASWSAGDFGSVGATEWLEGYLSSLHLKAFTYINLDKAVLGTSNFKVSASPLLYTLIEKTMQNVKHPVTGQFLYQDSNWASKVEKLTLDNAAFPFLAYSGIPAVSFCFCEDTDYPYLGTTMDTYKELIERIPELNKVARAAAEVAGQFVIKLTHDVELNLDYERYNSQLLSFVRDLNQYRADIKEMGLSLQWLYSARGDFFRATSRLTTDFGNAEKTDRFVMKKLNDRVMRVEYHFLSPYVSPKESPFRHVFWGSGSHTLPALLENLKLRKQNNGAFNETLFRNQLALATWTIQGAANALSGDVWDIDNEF
# Text: The receptor binding capability of the recombinant transferrin variants can be determined by Surface Plasmon Resonance (SPR) analysis. The binding activity of a transferrin sample to a transferrin receptor can be measured using surface plasmon resonance (SPR) a non-invasive optical technique in which the SPR response is a measure of change in mass concentration at the detector surface as molecules bind or dissociate. A sample is sent onto the surface of the sensor chip via a micro flow system at a constant flow rate. In this analysis, if the transferrin sample is able to bind to the Transferrin Receptor the mass on the surface sensor chip is increased due to binding between Transferrin Receptor and Transferrin molecules creating a surface plasmon wave, and a shift of the SPR signal proportional to the binding quantity can be detected as a change in the resonance unit (RU). […]
# The binding capacity of human serum transferrin to human trabnsferrin receptor 1 may be measured by SPR. […]
# The receptor binding capability of the recombinant transferrin variants was assessed by Surface Plasmon Resonance (SPR) analysis. The binding activity of a transferrin sample to transferrin receptor can be measured using surface plasmon resonance (SPR) a non-invasive optical technique in which the SPR response is a measure of change in mass concentration at the detector surface as molecules bind or dissociate. […]
substance,measurement,setting,value
"Fluorescein conjugated thio-transferrin (S415C, T613A): thiotransferrin (S415C, T613A) conjugated with fluorescein",Specific iron ptake Bmax,"[1]; 55Fe-labeled sample 0-1600 nM, specific uptake (unspecific binding with hundredfold excess unlabeled diferric transferrin accounted for)",3246±217 fmol^55Fe/10^6 cells 25min
same,Total Iron Uptake Bmax,"[1]; 55Fe-labeled sample 0-1600 nM, total uptake",4165±216 fmol^55Fe/10^6 cells x 25min
same,Kd,"[1]; specific uptake, read-out: Specific iron ptake Kd x",189 ± 47 nM
same,ability to bind to transferrin receptor 1 (measured by SPR),[2],able to bind to transferrin receptor 1 by SPR analysis in a manner equivalent to the unconjugated sample
